Measured values reported in patent EP0106487A2, “Improvements in or relating to novel bridged hexahydrobenz(f)isoquinolines” (ELI LILLY AND COMPANY, priority 1982, dated 1984).
Counter-ions that a name gives are not always drawn.

Tests used:
[1] = tested on: Cox standard strain albino male mice; test: Mouse writhing inhibition assay (acetic acid-induced writhing); type: in vivo; conditions: sc, s.c. administration, dose required to inhibit acetic acid (0.60 percent, i.p.) induced writhing by fifty percent
[2] = tested on: Cox standard strain albino male mice; test: as above; type: in vivo; conditions: po, p.o. administration (gavage, 5% acacia suspension, sixty minutes before acetic acid), dose required to inhibit induced writhing by fifty percent
Description: Mouse Writhing Inhibition Assay
Writhing, characterized by contraction of the abdominal musculature, extension of the hindlegs, and rotation of the trunk, was induced in Cox standard strain albino male mice. The mice,. weighing 18-24 grams, were fasted overnight and given the test compound by gavage in an acacia suspension (5%) sixty minutes before writhing was induced by the intraperitoneal administration of acetic acid (0.60 percent). Each treatment group consisted of 5 mice. The total number of writhes for the treatment group was determined during a 10-minute observation starting 5 minutes after acetic acid administration.
The results in the mouse writhing assay are presented as the effective dose in mg./kg. of the tested compound required to inhibit induced writhing in the test animals by fifty percent (ED50). Results are presented in Column II for both subcutaneous (s.c.) and oral (p.o.) administration of the test compound as compared to the reference compound meperidine.

Row | Compound | ED50 [1] [mg/kg] | ED50 [2] [mg/kg]
1 | COc1ccc2c(c1)C13CCCC1(CC2)CNCC3.Cl (stereo not shown) [Example 3, 1,2,3,4,5,6-hexahydro-9-methoxy-4a,10b-propanobenz[f]isoquinoline hydrochloride] | 56 | 66
2 | COc1ccc2c(c1)C13CCCC1(CC2)CN(C)CC3.Cl (stereo not shown) [Example 1, 1,2,3,4,5,6-hexahydro-3-methyl-9-methoxy-4a,10b-propanobenz[f]isoquinoline hydrochloride] | 17 | 23
3 | CN1CCC23CCCC2(CCc2ccccc23)C1 (racemic) [Example 8, 1,2,3,4,5,6-hexahydro-3-methyl-propanobenz-[f]isoquinoline hydrobromide] | 23 | 68
4 | CCOC(=O)C1(c2ccccc2)CCN(C)CC1 [meperidine, reference compound] | 2.8 | 21
5 | Oc1ccc2c(c1)C13CCCC1(CC2)CNCC3 (stereo not shown) [Example 4, 1,2,3,4,5,6-hexahydro-4a,10b-propanobenz[f]-isoquinolin-9-ol] | 52 | 78
6 | C=CCN1CCC23CCCC2(CCc2ccc(O)cc23)C1 (stereo not shown) [Example 7, 1,2,3,4,5,6-hexahydro-3-(2-propenyl)-4a,10b-propanobenz-[f]isoquinolin-9-ol] | > 80 | > 80
7 | Oc1ccc2c(c1)C13CCCC1(CC2)CN(CC1CC1)CC3 (stereo not shown) [Example 6, 1,2,3,4,5,6-hexahydro-3-cyclopropylmethyl-4a,10b-propanobenz[f]isoquinolin-9-ol] | 60 | > 80
8 | CN1CCC23CCCC2(CCc2ccc(O)cc23)C1 (racemic) [Example 2, 1,2,3,4,5,6-hexahydro-3-methyl-4a,lOb-propanobenz[f]isoquinolin-9-ol maleate] | 2.4 | 17
